Drawing on ChEMBL document CHEMBL1139953, “Bis[(para-methoxy)benzyl] phosphonate prodrugs with improved stability and enhanced cell penetration” (Bioorg Med Chem Lett, 2007), this text covers Activity, half-life and Ratio for 16 compounds.

Data set [1] has as its system Liver microsomes. The data set can be described thus: Drug activation in NADPH-fortified human liver microsomes assessed as rate of NMPA formation. Also noted: species or system Microsome.
For data set [2], the system named is Liver microsomes. The data set can be described thus: Drug activation in NADPH-fortified rat liver microsomes assessed as rate of NMPA formation. Also noted: species or system Microsome. For orientation: Liver microsomes are vesicles of endoplasmic reticulum, rich in cytochrome P450 enzymes.
A short description of data set [3]: Stability assessed as half life in Krebs bicarbonate buffer at 37degC. It is filed as physicochemical.
A short description of data set [4]: Stability assessed as half life in rat plasma. The class given is ADME, cell-free.
The subject of the next data set is Nucleic Acid. The data set can be described thus: Ratio of drug activation in NADPH-fortified human liver microsomes to NADPH-fortified rat liver microsomes assessed as rate of NMPA formation. Also noted: species or system Microsome.
The subject of the next data set is Hepatocyte. The data set can be described thus: Drug activation in rat hepatocytes by measuring intracellular NMPA levels at 100 uM after 1 hr. The class given is cell-based.
For data set [5], the system named is Liver microsomes. In words: Drug activation in human liver microsomes assessed as rate of NMPA formation. Also noted: species or system Microsome.
Another data set deals with Liver. The data set can be described thus: Drug activation in NADPH-fortified rat liver without microsomes assessed as rate of NMPA formation. Also noted: species or system Microsome.

For the compound `COc1ccc(COP(=O)(Cc2cccc3ccccc23)OCc2ccc(OC)c(F)c2)cc1F`, the Activity with Liver microsomes [1] came out at 5.23 pmol/min/mg; in the data set on Liver microsomes [2] it was 2.94 pmol/min/mg; in the data set on Hepatocyte it was 125 nmol/g. The half-life in data set [3] and in data set [4] was > 2 h throughout. For the same compound, the Ratio with Nucleic Acid was determined as 2.
For the compound `COc1ccc(COP(=O)(Cc2cccc3ccccc23)OCc2ccc(OC)c(Cl)c2)cc1Cl`, the Activity is reported as 4.52 pmol/min/mg with Liver microsomes [1], 1.58 pmol/min/mg in the data set on Liver microsomes [2] and 130 nmol/g with Hepatocyte. Also, the half-life in data set [3] and in data set [4] was > 2 h in each case. In the data set on Nucleic Acid, the Ratio is 2.
`COc1cc(COP(=O)(Cc2cccc3ccccc23)OCc2cc(Br)c(OC)c(Br)c2)cc(OC)c1OC` (stereo not given) showed an Activity in the data set with Hepatocyte of 26 nmol/g.
Turning to `COc1ccc(COP(=O)(Cc2cccc3ccccc23)OCc2ccc(OC)c(C#N)c2)cc1C#N`, the half-life – broadly, the time in which the quantity being followed falls by half – in data set [4] was > 2 h. In the data set on Hepatocyte, the Activity stood at 73 nmol/g.
Turning to `COc1ccc(COP(=O)(Cc2cccc3ccccc23)OCc2ccc(OC)c(C(F)(F)F)c2)cc1C(F)(F)F`, the half-life in data set [4] is > 2 h. For the same compound, in the data set on Hepatocyte, the Activity worked out at 46 nmol/g.
Turning to `COc1ccc(COP(=O)(Cc2cccc3ccccc23)OCc2ccc(OC)c(Br)c2)cc1Br`, the Activity came to 4.85 pmol/min/mg with Liver microsomes [1]; 2.76 pmol/min/mg with Liver microsomes [2]; 0 pmol/min/mg in the data set with Liver microsomes [5]; 0 pmol/min/mg in the data set on Liver; 76 nmol/g in the data set with Hepatocyte. In addition, the half-life in data set [3] and in data set [4] was > 2 h throughout. Moreover, in the data set with Nucleic Acid, the Ratio turned out to be 2.
Consider `CCOc1ccc(COP(=O)(Cc2cccc3ccccc23)OCc2ccc(OCC)c(Cl)c2)cc1Cl`, for which the half-life in data set [4] is > 2 h. In the data set on Hepatocyte, the Activity came to 54 nmol/g.
`CCCOc1ccc(COP(=O)(Cc2cccc3ccccc23)OCc2ccc(OCCC)c(Cl)c2)cc1Cl`: the Activity with Hepatocyte is reported as 0 nmol/g.
The same measure, in the same setting: then `COc1ccc(COP(=O)(Cc2cccc3ccccc23)OCc2ccc(OC)c(C(C)=O)c2)cc1C(C)=O`, with 0 nmol/g.
The same measure, in the same setting: to `COc1c(Cl)cc(COP(=O)(Cc2cccc3ccccc23)OCc2cc(Cl)c(OC)c(Cl)c2)cc1Cl` belongs 0 nmol/g.
As to `CCOP(=O)(Cc1cccc2ccccc12)OCC`, the Activity with Hepatocyte is 0 nmol/g.
For `COc1ccc(COP(=O)(Cc2cccc3ccccc23)OCc2ccc(OC)cc2)cc1`, the half-life in data set [3] and in data set [4] was 0.15 h in each case. In the data set with Hepatocyte, this compound showed an Activity of 91 nmol/g.
Take `COc1ccc(COP(=O)(Cc2cccc3ccccc23)OCc2ccc(OC)c([N+](=O)[O-])c2)cc1[N+](=O)[O-]`: the half-life in data set [4] is > 2 h. Also, the Activity in the data set on Hepatocyte was 60 nmol/g.
Turning to `O=P(O)(O)Cc1cccc2ccccc12`, in the data set on Hepatocyte, the Activity is given as 0 nmol/g.
The same measure, in the same setting: to `COc1c(Br)cc(COP(=O)(Cc2cccc3ccccc23)OCc2cc(Br)c(OC)c(Br)c2)cc1Br` belongs 0 nmol/g.
As for `CC(C)C(=O)OCOP(=O)(Cc1cccc2ccccc12)OCOC(=O)C(C)C`, the half-life in data set [4] turned out to be 0.00833 h. For the same compound, the Activity in the data set on Hepatocyte stood at 85 nmol/g.
